Reference: US6784186B1 (priority 1998, dated 2004)
“And” between values parts separate entries of the source, which are not always exact repeats. Equal entries are not always repeated. Where two headings read alike, the source gives them in different places.

Tests used:
[1] = Formalin-induced hind paw licking test (mouse analgesia model); type: in vivo, ICR derived male mice; conditions: for % Reduction in Hind Paw Licking time: given one hour before subplantar formalin, licking time recorded during the following 20 to 30 minute period
[2] = PQ-induced writhing test (mouse analgesia model); type: in vivo, ICR derived male mice; conditions: for % Reduction in Writhes: given 30 minutes before PQ (2 mg/kg), writhes 5 to 10 minutes after PQ
[3] = in vivo
[4] = test system: μ opiate receptor; set-up: species or system guinea-pig

CN1CC[C@]23c4c5ccc(O)c4O[C@H]2[C@@H](O)C=C[C@H]3[C@H]1C5.Cl [Morphine HCl, reference compound]
% Reduction in Hind Paw Licking time ([1]; 10 mg/kg): 100%
% Reduction in Writhes ([2]; 3 mg/kg, HCl): 87% and 73%

CN1CC[C@]23c4c5ccc(O)c4O[C@H]2[C@@H](O)C=C[C@H]3[C@H]1C5 [Morphine, reference compound]
Corneal reflex ([3]; 10 mg/kg): 2.9 ± 0.2
Grip strength ([3]; 10 mg/kg): 3.7 ± 0.3
Positional Passivity ([3]; 10 mg/kg): 8.7 ± 0.4
Respiratory rate ([3]; 10 mg/kg): 4.1 ± 0.3
Tail elevation ([3]; 10 mg/kg): 7.0 ± 0.7

COc1ccc2c3c1O[C@H]1[C@@H](O)C=CC4[C@@H](C2)N(CCC(=N)N)CC[C@@]341 (stereo partly drawn) [KRS-2-63, 5α,6α-7,8-didehydro-4,5-epoxy-3-methoxy-17-N-[(2-aminoiminomethyl)ethyl]morphinan]
agonist character (full / partial) [4]: partial agonist activity

N=C(N)N1CC[C@]23c4c5ccc(O)c4O[C@H]2[C@@H](O)C=CC3[C@H]1C5 (stereo partly drawn) [KRS-2-19, (5α,6α)-7,8-didehydro-4,5-epoxy-17-N-(2-carboxamidino)-morphinan-3,6, -diol]
agonist character (full / partial) [4]: only partial morphine agonist activity

N=C(N)CCN1CC[C@]23c4c5ccc(O)c4O[C@H]2[C@@H](O)C=CC3[C@H]1C5 (stereo partly drawn) [KRS-41, (5α,6α)-7,8-didehydro-4,5-epoxy-17-N-[(2-aminoiminomethyl)ethyl]-morphinan-3,6-diol]
% Reduction in Hind Paw Licking time ([1]; 10 mg/kg): 12%
% Reduction in Hind Paw Licking time ([1]; 30 mg/kg): 75%
analgesic activity at multiple of the morphine concentration ([1]; formalin test, relative to morphine): 3 times the morphine concentration
Corneal reflex ([3]; 30 mg/kg): 4.9 ± 0.1
Grip strength ([3]; 30 mg/kg): 5.1 ± 0.4
Positional Passivity ([3]; 30 mg/kg): 4.7 ± 0.3
Respiratory rate ([3]; 30 mg/kg): 5.1 ± 0.2
Tail elevation ([3]; 30 mg/kg): 2.0 ± 0.4
opiate activity in stimulated ileum compared to standard [4]: excellent activity compared to morphine
% Reduction in Writhes ([2]; 3 mg/kg): 18%
% Reduction in Writhes ([2]; 15 mg/kg): 93%
analgesic activity at multiple of the morphine concentration ([2]; PQ writhing test, relative to morphine): 5 times the morphine concentration
